Laboratory results taken from US20170209445A1, “KINASE INHIBITORS” (Respivert Limited, priority 2014, published 2017).
Marks after values point to notes of the source that are not given here.

Legend:
Jurkat cells = assay: Cell cytotoxicity assay (Jurkat cell viability); assay type: cell-based, human; conditions: 24 hours
Protocol: 1×10^5 Jurkat cells (immortalised human T lymphocytes) are added to the appropriate number of wells of a 96 well plate in 100 μL of media (RPMI supplemented with 10% foetal bovine serum). 1 μL of DMSO control (final concentration 1.0% v/v) or test compound (final concentration 20, 5 or 1 μg/mL) is added to the wells and incubated at 37° C., 5% CO2. After 24 hours, the plate is centrifuged at 1200 rpm for 3 minutes and the supernatant discarded. Cells are then resuspended in 150 μL (final concentration 7.5 μg/mL) of propidium iodide (PI) in PBS and incubated at 37° C., 5% CO2 for 15 minutes. After 15 minutes, cells are analysed by flow cytometry (BD accuri) using the FL3 window. The % viability is calculated as the % of cells that are PI negative in the test wells normalised to the DMSO control.

PBMCs [1] = assay: IFN gamma release in CD3/CD28 stimulated PBMC cells; assay type: cell-based; conditions: Homo sapiens, read-out: IC50 Values for Inhibition of Cytokine Release PBMCs IFNγ
Protocol: (§1) PBMCs from healthy subjects are separated from whole blood using a density gradient (Lymphoprep, Axis-Shield Healthcare). Cells are added to a 96 well plate pre-coated with a mixture of CD3/CD28 monoclonal antibodies (0.3 μg/mL eBioscience and 3 μg/mL BD Pharmingen respectively). Compound at the desired concentration is then added to the wells and the plate left for 3 days under normal tissue culture conditions. Supernatants are harvested and IL-2 and IFN gamma release determined by Sandwich ELISA (Duo-set, R&D System). The IC50 is determined from the dose response curve.

p38 MAPKα = biological target: T1, p38 MAPKα (Homo sapiens, UniProt Q16539); assay: p38 MAPKα enzyme inhibition (Method 2), FRET Z-LYTE; assay type: biochemical
T1 construct: purchased Invitrogen
Protocol: (§2) The enzyme inhibitory activities of compounds disclosed herein are determined by FRET using synthetic peptides labelled with both donor and acceptor fluorophores (Z-LYTE, Invitrogen Ltd., Paisley, UK).
The inhibitory activities of test compounds against the p38 MAPKα isoform (MAPK14: Invitrogen), are evaluated indirectly by determining the level of activation/phosphorylation of the down-stream molecule, MAPKAP-K2. The p38 MAPKα protein (80 ng/mL, 2.5 μL) is mixed with the test compound (2.5 μL of either 4 μg/mL, 0.4 μg/mL, 0.04 μg/mL or 0.004 μg/mL) for 2 hr at RT. […] The mixture is incubated for 1 hr at RT. Development reagent (protease, 5 μL) is added for 1 hr prior to detection in a fluorescence microplate reader (Varioskan® Flash, ThermoFisher Scientific).
This method follows the same steps as Method 1 above, but utilises a higher concentration of the p38 MAPKα protein (2.5 μL of 200 ng/mL protein instead of 2.5 μL of 80 ng/mL protein) for mixing with the test compound.
(§3) In all cases, the site-specific protease cleaves non-phosphorylated peptide only and eliminates the FRET signal. Phosphorylation levels of each reaction are calculated using the ratio of coumarin emission (donor) over fluorescein emission (acceptor), for which high ratios indicate high phosphorylation and low ratios indicate low phosphorylation levels.

PBMCs [2] = assay: LPS-induced IL-8 release in PBMC cells; assay type: cell-based; conditions: Homo sapiens, LPS-stimulated PBMCs, read-out: IC50 Values for Inhibition of Cytokine Release PBMCs IL-8
Protocol: Peripheral blood mononuclear cells (PBMCs) from healthy subjects are separated from whole blood using a density gradient (Lymphoprep, Axis-Shield Healthcare). The PBMCs are seeded in 96 well plates and treated with compounds at the desired concentration for 2 hours before addition of 1 ng/mL LPS (Escherichia Coli 0111:B4 from Sigma Aldrich) for 24 hours under normal tissue culture conditions (37° C., 5% CO2). The supernatant is harvested for determination of IL-8 and TNFα concentrations by sandwich ELISA (Duo-set, R&D systems) and read on the fluorescence microplate reader (Varioskan® Flash, ThermoFisher Scientific).

Syk = biological target: T2, Syk (Homo sapiens, UniProt P43405); assay: Syk enzyme inhibition, FRET Z-LYTE; assay type: biochemical
T2 construct: purchased Invitrogen
Protocol: as §2
(§4) The inhibitory activities of compounds of the invention against c-Src and Syk enzymes (Invitrogen), are evaluated in a similar fashion to that described hereinabove. The relevant enzyme (3000 ng/mL or 2000 ng/mL respectively, 2.5 μL) is incubated with the test compound (either 4 μg/mL, 0.4 μg/mL, 0.04 μg/mL, or 0.004 μg/mL, 2.5 μL each) for 2 hr at RT. The FRET peptides (8 μM, 2.5 μL), and appropriate ATP solutions (2.5 μL, 800 μM for c-Src, and 60 μM ATP for Syk) are then added to the enzymes/compound mixtures and incubated for 1 hr. Development reagent (protease, 5 μL) is added for 1 hr prior to detection in a fluorescence microplate reader (Varioskan® Flash, ThermoFisher Scientific).
as §3

c-Src = biological target: T3, c-Src (Homo sapiens, UniProt P12931); assay: c-Src enzyme inhibition, FRET Z-LYTE; assay type: biochemical
T3 construct: purchased Invitrogen
Protocol: as §2, §4, §3

GSK3α = biological target: T4, GSK3α (Homo sapiens, UniProt P49840); assay: GSK3α enzyme inhibition (Method 2), FRET Z-LYTE; assay type: biochemical
T4 construct: purchased Invitrogen
Protocol: as §2
The inhibitory activities of compounds of the invention against the GSK 3α enzyme isoform (Invitrogen), are evaluated by determining the level of activation/phosphorylation of the target peptide. The GSK3-α protein (500 ng/mL, 2.5 μL) is mixed with the test compound (2.5 μL at either 4 μg/mL, 0.4 μg/mL, 0.04 μg/mL, or 0.004 μg/mL) for 2 hr at RT. The FRET peptide (8 μM, 2.5 μL), which is a phosphorylation target for GSK3α, and ATP (40 μM, 2.5 μL) are then added to the enzyme/compound mixture and the resulting mixture incubated for 1 hr. Development reagent (protease, 5 μL) is added for 1 hr prior to detection in a fluorescence microplate reader (Varioskan® Flash, ThermoFisher Scientific).
as §3
This method follows the same steps as Method 1 above, but utilises a shorter period of mixing of the test compound (105 minutes instead of 2 hours) with the GSK3-α protein.

PBMCs [3] = assay: IL-2 release in CD3/CD28 stimulated PBMC cells; assay type: cell-based; conditions: Homo sapiens, read-out: IC50 Values for Inhibition of Cytokine Release PBMCs IL-2
Protocol: as §1

[4] = Hydrolytic stability study; assay type: physicochemical; conditions: DMSO/water (3:1); for % Parent Remaining, cumulative average from multiple experiments / % Parent Remaining: 1 mg/mL; for % Parent Remaining: experiment in which Example 2 was tested
Protocol: Chemical stability of compounds of the invention was assessed in a mixture of DMSO and water (3:1) at a test compound concentration of 1 mg/mL
General HPLC Procedure • Agilent, Waters X-Select C18, 2.5 μm, 4.6×30 mm column, 4 min method, 5-95% • MeCN/water (0.1% formic acid). • Flow rate 2.5 ml/min. • Column Oven Temperature 40° C. • Detection 254 nm.
Sample Preparation • A 1.0 mg sample of test compound was dissolved in 1 mL of DMSO/water (3:1) and the resulting mixture was stirred at rt overnight.
Recording Stability • A 50 μL aliquot of the test solution was removed and analysed in duplicate by 5 μL HPLC injections. The peak area for the test compound (taken to be 100% product, 0% degradation) was recorded following manual integration of the corresponding UV trace. The area retention time was also recorded. • The test solution was heated to 60° C. internal temperature (65° C. block temperature), with stirring, and timing commenced once the target temperature had been reached. After 5 and 24 h, samples were removed and analysed by HPLC (5 μL injections). In all cases, 5 μL injections were used and the samples analysed in duplicate. • The peak areas for the test compounds were recorded at both subsequent timepoints and the % decomposition calculated from the % change in peak area over time.

T4 sequence (P49840 whole entry): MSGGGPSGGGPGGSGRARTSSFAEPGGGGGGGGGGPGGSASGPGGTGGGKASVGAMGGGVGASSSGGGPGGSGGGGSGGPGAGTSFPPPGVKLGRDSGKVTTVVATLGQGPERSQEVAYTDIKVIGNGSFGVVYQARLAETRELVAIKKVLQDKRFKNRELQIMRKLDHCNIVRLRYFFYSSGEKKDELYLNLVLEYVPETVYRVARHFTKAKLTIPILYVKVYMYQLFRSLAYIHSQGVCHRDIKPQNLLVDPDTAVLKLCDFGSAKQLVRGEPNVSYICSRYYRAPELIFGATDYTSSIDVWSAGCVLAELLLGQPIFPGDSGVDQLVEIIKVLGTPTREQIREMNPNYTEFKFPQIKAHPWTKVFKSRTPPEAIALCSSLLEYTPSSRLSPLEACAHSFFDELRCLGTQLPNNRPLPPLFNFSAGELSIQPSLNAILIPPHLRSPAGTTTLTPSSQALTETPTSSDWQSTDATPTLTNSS
T3 sequence (P12931 whole entry): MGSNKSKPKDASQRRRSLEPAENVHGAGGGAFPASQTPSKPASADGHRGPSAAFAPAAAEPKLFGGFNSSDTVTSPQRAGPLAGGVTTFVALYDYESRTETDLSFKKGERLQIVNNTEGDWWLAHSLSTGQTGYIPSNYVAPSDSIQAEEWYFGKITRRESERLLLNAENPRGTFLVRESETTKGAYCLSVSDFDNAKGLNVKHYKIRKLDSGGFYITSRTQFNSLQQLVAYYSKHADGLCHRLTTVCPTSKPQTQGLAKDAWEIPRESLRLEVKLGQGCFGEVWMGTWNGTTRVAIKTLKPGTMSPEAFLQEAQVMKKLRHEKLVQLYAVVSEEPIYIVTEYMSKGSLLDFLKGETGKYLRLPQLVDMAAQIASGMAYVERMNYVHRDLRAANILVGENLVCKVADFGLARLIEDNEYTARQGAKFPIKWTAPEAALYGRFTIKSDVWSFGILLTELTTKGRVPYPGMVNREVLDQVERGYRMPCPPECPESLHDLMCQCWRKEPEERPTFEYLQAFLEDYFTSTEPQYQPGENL
T1 sequence (Q16539 whole entry): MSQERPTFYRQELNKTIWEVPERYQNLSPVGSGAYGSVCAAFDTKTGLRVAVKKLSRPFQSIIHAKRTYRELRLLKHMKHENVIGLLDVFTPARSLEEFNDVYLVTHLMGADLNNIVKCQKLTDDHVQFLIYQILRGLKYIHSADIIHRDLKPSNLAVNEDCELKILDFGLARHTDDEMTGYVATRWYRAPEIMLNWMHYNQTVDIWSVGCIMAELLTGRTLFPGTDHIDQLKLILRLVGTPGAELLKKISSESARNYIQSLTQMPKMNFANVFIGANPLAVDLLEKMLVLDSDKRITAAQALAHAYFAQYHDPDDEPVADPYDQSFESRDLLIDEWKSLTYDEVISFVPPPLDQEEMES

IC50 (p38 MAPKα) | IC50 (Syk) | IC50 (c-Src) | IC50 (GSK3α) | SMILES | % Viability at 1 μg/mL (Jurkat cells) | % Viability at 5 μg/mL (Jurkat cells) | % Viability at 20 μg/mL (Jurkat cells) | IC50 (PBMCs [1]) | IC50 (PBMCs [2]) | further results
24 nM | > 1160 nM | 20 nM |  | COc1c(NC(=O)c2ccc(C)c(-c3ccc4nc(Nc5cc(OS(C)(=O)=O)cc(C(=O)NCCN6CCOCC6)c5)ncc4c3)c2)cc(C(C)(C)C)cc1NS(C)(=O)=O [Example 10, 3-((6-(5-((5-(tert-Butyl)-2-methoxy-3-(methylsulfonamido)phenyl)carbamoyl)-2-methylphenyl)-quinazolin-2-yl)amino)-5-((2-morpholinoethyl)carbamoyl)phenyl methanesulfonate] | 91.5% | 82.5% | 77.8% | 13.1 nM | 3.5 nM | 
 |  |  | > 12600 nM | COc1cc(Nc2ncc3cc(-c4cc(C(=O)Nc5cc(C(C)(C)C)cc(NS(C)(=O)=O)c5OC)ccc4C)ccc3n2)cc(C(=O)NCCN2CCOCC2)c1 [Example 5, N-(5-(tert-butyl)-2-methoxy-3-(methylsulfonamido)phenyl)-3-(2-((3-methoxy-5-((2-morpholinoethyl)carbamoyl)phenyl)amino)quinazolin-6-yl)-4-methylbenzamide] | 116.5% | 48.8% | 44.6% | 30.4 nM | 10.3 nM | IC50 (PBMCs [3]): 38.7 nM
 |  |  | > 12800 nM | COc1cc(Nc2ncc3cc(-c4cc(C(=O)Nc5cc(C(C)(C)C)cc(P(C)(C)=O)c5OC)ccc4C)ccc3n2)cc(C(=O)NCCN2CCOCC2)c1 [Example 4, N-(5-(tert-Butyl)-3-(dimethylphosphoryl)-2-methoxyphenyl)-3-(2-((3-methoxy-5-((2-morpholinoethyl)carbamoyl)phenyl)amino)quinazolin-6-yl)-4-methylbenzamide] |  |  |  |  | 14.8 nM | 
8 nM | 190 nM | 4 nM |  | COc1cc(Nc2ncc3cc(-c4cc(C(=O)Nc5cc(C(C)(C)C)cc(NS(C)(=O)=O)c5OC)ccc4C)ccc3n2)ccc1C(=O)N1CCS(=O)(=O)CC1 [Example 12, N-(5-(tert-Butyl)-2-methoxy-3-(methylsulfonamido)phenyl)-3-(2-((4-(1,1-dioxidothiomorpholine-4-carbonyl)-3-methoxyphenyl)amino)quinazolin-6-yl)-4-methylbenzamide] | 86.4% | 79.3% | 81.0% | 12.6 nM | 2.3 nM | 
776 nM | > 1450 nM | 14 nM | > 14500 nM | COCCOCCOCCOc1cc(Nc2ncc3cc(-c4cc(C(=O)Nc5cccc(C(F)(F)F)c5)ccc4C)ccc3n2)cc(OC)c1 [Example 1, 3-(2-((3-Methoxy-5-(2-(2-(2-methoxyethoxy)ethoxy)ethoxy)phenyl)amino)quinazolin-6-yl)-4-methyl-N-(3-(trifluoromethyl)phenyl)benzamide] |  |  |  |  | 134 nM | 
 |  |  |  | C#Cc1cc(Nc2nccc(Oc3ccc(NC(=O)Nc4cc(C(C)C)nn4-c4ccc(C)cc4)c4ccccc34)n2)cc(C(=O)NCCN2CCOCC2)c1 [Reference Compound B, 3-ethynyl-5-((4-((4-(3-(3-isopropyl-1-(p-tolyl)-1H-pyrazol-5-yl)ureido)naphthalen-1-yl)oxy)pyrimidin-2-yl)amino)-N-(2-morpholinoethyl)benzamide] |  |  |  |  |  | % Parent Remaining, cumulative average from multiple experiments ([4]; 60° C., 300 min): 71.0%; % Parent Remaining ([4]; 60° C., 300 min): 93.3%; % Parent Remaining, cumulative average from multiple experiments ([4]; 60° C., 1440 min): 26.0%; % Parent Remaining ([4]; 60° C., 1440 min): 52.3%; % Parent Remaining, cumulative average from multiple experiments ([4]; time 0 min): 100^a (100^b) %; % Parent Remaining ([4]; time 0 min): 100^a (100^b) %; decomposition under the conditions of the hydrolytic stability experiment, in words ([4]; 60° C.): underwent substantial decomposition
 |  |  |  | COc1cc(Nc2ncc3cc(-c4cc(C(=O)Nc5cc(C(C)(C)C)cc(NS(C)(=O)=O)c5OC)ccc4C)ccc3n2)ccc1C(=O)N(C)CCN1CCOCC1 [Example 9, 4-((6-(5-((5-(tert-Butyl)-2-methoxy-3-(methylsulfonamido)phenyl)carbamoyl)-2-methylphenyl)quinazolin-2-yl)amino)-2-methoxy-N-methyl-N-(2-morpholinoethyl)benzamide] | 63.0% | 38.4% | 28.7% |  | 3.1 nM | 
 |  |  |  | C#Cc1cc(Nc2ncc3cc(-c4cc(C(=O)Nc5cc(C(C)(C)C)cc(NS(C)(=O)=O)c5OC)ccc4C)ccc3n2)cc(C(=O)NCCOCCOCCOC)c1 [14(g), N-(5-(tert-Butyl)-2-methoxy-3-(methylsulfonamido)phenyl)-3-(2-((3-ethynyl-5-((2-(2-(2-methoxyethoxy)ethoxy)ethyl)carbamoyl)phenyl)amino)quinazolin-6-yl)-4-methylbenzamide] | 110.1% | 75.5% | 65.4% |  | 17.3 nM | 
